Read-outs that look alike come from different tables or passages of the source.
Experiments:
Experiment in all cases: NCI-60 antiproliferative screen (SRB)
SK-MEL-2 = format: cell-based, human; settings: 48 h
CCRF-CEM = format: cell-based, human; settings: 48 h
A498 = format: cell-based, human; settings: 48 h
OVCAR-5 = format: cell-based, human; settings: 48 h
K-562 = format: cell-based, human; settings: 48 h
SK-MEL-28 = format: cell-based, human
SN12C = format: cell-based, human; settings: 48 h
CAKI-1 = format: cell-based, human; settings: 48 h
UACC-257 = format: cell-based, human; settings: 48 h
HCT-15 = format: cell-based, human; settings: 48 h
OVCAR-3 = format: cell-based, human; settings: 48 h
OVCAR-4 = settings: Homo sapiens, OVCAR-4, 48 h, read-out: Growth inhibition (%)
Description: Anticancer activity was tested against 60 cancer cell lines (NCI-60) after 48h treatments with a single dosage of 10 μM of compounds by using sulforhodamine B assay [39] on the traditional 96-well platform. […] The human cancer cell lines of the NCI-60 panel are grown in RPMI 1640 medium supplemented with 5% FBS (fetal bovine serum) and 2 mM L-glutamine. […] For further analysis of promising compounds, five dose screens were performed against the NCI-60 panel. Drug treatments are performed in 5 doses using 10-fold or ½ log dose dilutions.

RPMI-8226 = format: cell-based, human; settings: 48 h
KM12 = format: cell-based, human; settings: 48 h
A549/ATCC = format: cell-based, human; settings: 48 h
M14 = format: cell-based, human; settings: 48 h
SK-OV-3 = format: cell-based, human; settings: 48 h
SF-295 = format: cell-based, human; settings: 48 h
OVCAR-8 = format: cell-based, human; settings: 48 h
HL-60(TB) = format: cell-based, human; settings: 48 h
MOLT-4 = format: cell-based; settings: Homo sapiens, 48 h
SNB-19 = format: cell-based, human; settings: 48 h
NCI/ADR-RES = format: cell-based, human; settings: 48 h
HCT-116 = format: cell-based, human; settings: 48 h
PC-3 = format: cell-based, human; settings: 48 h
UO-31 = format: cell-based, human; settings: five-dose, 48 h, UO-31
MDA-MB-468 = format: cell-based, human; settings: 48 h
COLO 205 = format: cell-based, human; settings: 48 h
UACC-62 = format: cell-based, human; settings: 48 h
NCI-H522 = format: cell-based, human; settings: 48 h

O=C1Nc2cc(Cl)ccc2C1=Cc1ccc(OCc2cccnc2)cc1 (mixture of isomers) [Compound 5l, (E/Z)-6-Chloro-3-[4-(pyridin-3-ylmethoxy)benzylidene] indolin-2-one]
inhibition at 10 µM (SK-MEL-2; Homo sapiens, 10 µM single dose, SK-MEL-2 (Melanoma), read-out: Growth inhibition (%)): 66.2% | GI50 (SK-MEL-2; Homo sapiens, five-dose, SK-MEL-2): 9.67 µM | CC50 (SK-MEL-2; Homo sapiens, five-dose, SK-MEL-2, read-out: LC50 (the source's name)): > 100 µM | TGI (SK-MEL-2; five-dose, SK-MEL-2): 65.90 µM | inhibition at 10 µM (CCRF-CEM; Homo sapiens, 10 µM single dose, CCRF-CEM (Leukemia), read-out: Growth inhibition (%)): 83.9% | GI50 (CCRF-CEM; Homo sapiens, five-dose, CCRF-CEM): 3.72 µM | TGI (CCRF-CEM; five-dose, CCRF-CEM): >100 µM | inhibition at 10 µM (A498; Homo sapiens, 10 µM single dose, A498 (Renal), read-out: Growth inhibition (%)): 8.9% | GI50 (A498; Homo sapiens, five-dose, A498): 18 µM | CC50 (A498; Homo sapiens, five-dose, A498, read-out: LC50 (the source's name)): > 100 µM | TGI (A498; five-dose, A498): 85.20 µM | inhibition at 10 µM (OVCAR-5; Homo sapiens, 10 µM single dose, OVCAR-5 (Ovarian), read-out: Growth inhibition (%)): 21.7% | GI50 (OVCAR-5; Homo sapiens, five-dose, OVCAR-5): 25 µM | TGI (OVCAR-5; five-dose, OVCAR-5): >100 µM | inhibition at 10 µM (K-562; Homo sapiens, K562, 10 µM single dose, K-562 (Leukemia), read-out: Growth inhibition (%)): 95% | GI50 (K-562; Homo sapiens, K562, five-dose, K-562): 3.08 µM | CC50 (K-562; Homo sapiens, K562, five-dose, K-562, read-out: LC50 (the source's name)): > 100 µM | TGI (K-562; five-dose, K-562): >100 µM | CC50 (SK-MEL-28; Homo sapiens, SK-MEL-28, 48 h, five-dose, SK-MEL-28, read-out: LC50 (the source's name)): 71.5 µM | inhibition at 10 µM (SK-MEL-28; Homo sapiens, 10 µM single dose, 48 h, SK-MEL-28 (Melanoma), read-out: Growth inhibition (%)): 46.3% | GI50 (SK-MEL-28; Homo sapiens, five-dose, 48 h, SK-MEL-28): 12.3 µM | TGI (SK-MEL-28; five-dose, 48 h, SK-MEL-28): 28.50 µM | CC50 (SK-MEL-28; five-dose, 48 h, SK-MEL-28, read-out: LC50 (the source's name)): 65.6 µM | inhibition at 10 µM (SN12C; Homo sapiens, 10 µM single dose, SN12C (Renal), read-out: Growth inhibition (%)): 66.1% | GI50 (SN12C; Homo sapiens, five-dose, SN12C): 9.74 µM | CC50 (SN12C; Homo sapiens, five-dose, SN12C, read-out: LC50 (the source's name)): > 100 µM | TGI (SN12C; five-dose, SN12C): 66.60 µM | inhibition at 10 µM (CAKI-1; Homo sapiens, 10 µM single dose, CAKI-1 (Renal), read-out: Growth inhibition (%)): 69.8% | GI50 (CAKI-1; Homo sapiens, five-dose, CAKI-1): 4.44 µM | CC50 (CAKI-1; Homo sapiens, five-dose, CAKI-1, read-out: LC50 (the source's name)): > 100 µM | TGI (CAKI-1; five-dose, CAKI-1): 26.90 µM | inhibition at 10 µM (UACC-257; Homo sapiens, 10 µM single dose, UACC-257 (Melanoma), read-out: Growth inhibition (%)): 76.7% | GI50 (UACC-257; Homo sapiens, five-dose, UACC-257): 8.06 µM | CC50 (UACC-257; Homo sapiens, five-dose, UACC-257, read-out: LC50 (the source's name)): > 100 µM | TGI (UACC-257; five-dose, UACC-257): 43.80 µM | inhibition at 10 µM (HCT-15; Homo sapiens, 10 µM single dose, HCT-15 (Colon), read-out: Growth inhibition (%)): 97.2% | GI50 (HCT-15; Homo sapiens, five-dose, HCT-15): 3.46 µM | TGI (HCT-15; five-dose, HCT-15): 25.20 µM | inhibition at 10 µM (OVCAR-3; Homo sapiens, 10 µM single dose, OVCAR-3 (Ovarian), read-out: Growth inhibition (%)): 61.8% | GI50 (OVCAR-3; Homo sapiens, five-dose, OVCAR-3): 57.7 µM | CC50 (OVCAR-3; Homo sapiens, five-dose, OVCAR-3, read-out: LC50 (the source's name)): > 100 µM | TGI (OVCAR-3; five-dose, OVCAR-3): 2.26 µM | inhibition at 10 µM (OVCAR-4): 68.4% | inhibition at 10 µM (RPMI-8226; Homo sapiens, 10 µM single dose, RPMI-8226 (Leukemia), read-out: Growth inhibition (%)): 95.5% | GI50 (RPMI-8226; Homo sapiens, five-dose, RPMI-8226): 3.09 µM | CC50 (RPMI-8226; Homo sapiens, five-dose, RPMI-8226, read-out: LC50 (the source's name)): > 100 µM | TGI (RPMI-8226; five-dose, RPMI-8226): >100 µM | inhibition at 10 µM (KM12; Homo sapiens, 10 µM single dose, KM12 (Colon), read-out: Growth inhibition (%)): 99.7% | GI50 (KM12; Homo sapiens, five-dose, KM12): 5.3 µM | TGI (KM12; five-dose, KM12): >100 µM | inhibition at 10 µM (A549/ATCC; Homo sapiens, 10 µM single dose, A549/ATCC (NSCLC), read-out: Growth inhibition (%)): 58.8% | GI50 (A549/ATCC; Homo sapiens, five-dose, A549/ATCC): 15.5 µM | TGI (A549/ATCC; five-dose, A549/ATCC): >100 µM | inhibition at 10 µM (M14; Homo sapiens, 10 µM single dose, M14 (Melanoma), read-out: Growth inhibition (%)): 77.1% | GI50 (M14; Homo sapiens, five-dose, M14): 29 µM | TGI (M14; five-dose, M14): >100 µM | inhibition at 10 µM (SK-OV-3; Homo sapiens, 10 µM single dose, SK-OV-3 (Ovarian), read-out: Growth inhibition (%)): 32.2% | GI50 (SK-OV-3; Homo sapiens, five-dose, SK-OV-3): 71.8 µM | CC50 (SK-OV-3; Homo sapiens, five-dose, SK-OV-3, read-out: LC50 (the source's name)): > 100 µM | TGI (SK-OV-3; five-dose, SK-OV-3): >100 µM | inhibition at 10 µM (SF-295; Homo sapiens, 10 µM single dose, SF-295 (CNS), read-out: Growth inhibition (%)): 63.3% | GI50 (SF-295; Homo sapiens, five-dose, SF-295): 10.6 µM | TGI (SF-295; five-dose, SF-295): 39.90 µM | inhibition at 10 µM (OVCAR-8; Homo sapiens, 10 µM single dose, OVCAR-8 (Ovarian), read-out: Growth inhibition (%)): 88.6% | GI50 (OVCAR-8; Homo sapiens, five-dose, OVCAR-8): 7.96 µM | TGI (OVCAR-8; five-dose, OVCAR-8): 45.20 µM | GI50 (HL-60(TB); Homo sapiens, HL-60, five-dose, HL60(TB)): 4.08 µM | CC50 (HL-60(TB); Homo sapiens, HL-60, five-dose, HL60(TB), read-out: LC50 (the source's name)): > 100 µM | inhibition at 10 µM (HL-60(TB); Homo sapiens, 10 µM single dose, HL-60(TB) (Leukemia), read-out: Growth inhibition (%)): 95.5% | TGI (HL-60(TB); five-dose, HL60(TB)): >100 µM | inhibition at 10 µM (MOLT-4; 10 µM single dose, MOLT-4 (Leukemia), read-out: Growth inhibition (%)): 98.1% | GI50 (MOLT-4; five-dose, MOLT-4): 2.99 µM | CC50 (MOLT-4; five-dose, MOLT-4, read-out: LC50 (the source's name)): > 100 µM | inhibition at 10 µM (SNB-19; Homo sapiens, 10 µM single dose, SNB-19 (CNS), read-out: Growth inhibition (%)): 56.2% | GI50 (SNB-19; Homo sapiens, five-dose, SNB-19): 12.4 µM | TGI (SNB-19; five-dose, SNB-19): >100 µM | inhibition at 10 µM (NCI/ADR-RES; Homo sapiens, 10 µM single dose, NCI/ADR-RES (Ovarian), read-out: Growth inhibition (%)): 112% | GI50 (NCI/ADR-RES; Homo sapiens, five-dose, NCI/ADR-RES): 3.45 µM | TGI (NCI/ADR-RES; five-dose, NCI/ADR-RES): 23.60 µM | inhibition at 10 µM (HCT-116; Homo sapiens, 10 µM single dose, HCT-116 (Colon), read-out: Growth inhibition (%)): 93% | GI50 (HCT-116; Homo sapiens, five-dose, HCT-116): 6.97 µM | TGI (HCT-116; five-dose, HCT-116): >100 µM | inhibition at 10 µM (PC-3; Homo sapiens, 10 µM single dose, PC-3 (Prostate), read-out: Growth inhibition (%)): 67.1% | GI50 (PC-3; Homo sapiens, five-dose, PC-3): 6.37 µM | CC50 (PC-3; Homo sapiens, five-dose, PC-3, read-out: LC50 (the source's name)): > 100 µM | TGI (PC-3; five-dose, PC-3): >100 µM | GI50 (UO-31; Homo sapiens): 2.7 µM | CC50 (UO-31; Homo sapiens, read-out: LC50 (the source's name)): > 100 µM | TGI (UO-31): >100 µM | inhibition at 10 µM (MDA-MB-468; Homo sapiens, 10 µM single dose, MDA-MB-468 (Breast), read-out: Growth inhibition (%)): 85.7% | GI50 (MDA-MB-468; Homo sapiens, five-dose, MDA-MB-468): 3.76 µM | CC50 (MDA-MB-468; Homo sapiens, five-dose, MDA-MB-468, read-out: LC50 (the source's name)): > 100 µM | TGI (MDA-MB-468; five-dose, MDA-MB-468): 43.00 µM | inhibition at 10 µM (COLO 205; Homo sapiens, 10 µM single dose, COLO 205 (Colon), read-out: Growth inhibition (%)): 96.4% | GI50 (COLO 205; Homo sapiens, five-dose, COLO 205): 9.62 µM | TGI (COLO 205; five-dose, COLO 205): >100 µM | inhibition at 10 µM (UACC-62; Homo sapiens, 10 µM single dose, UACC-62 (Melanoma), read-out: Growth inhibition (%)): 64.3% | GI50 (UACC-62; Homo sapiens, five-dose, UACC-62): 7.7 µM | TGI (UACC-62; five-dose, UACC-62): 43.50 µM | inhibition at 10 µM (NCI-H522; Homo sapiens, 10 µM single dose, NCI-H522 (NSCLC), read-out: Growth inhibition (%)): 104% | GI50 (NCI-H522; Homo sapiens, five-dose, NCI-H522): 12.3 µM | TGI (NCI-H522; five-dose, NCI-H522): 82.20 µM

Reference: publication PMC11124822, “Discovery and Anticancer Screening of Novel Oxindole-Based Derivative Bearing Pyridyl Group as Potent and Selective Dual FLT3/CDK2 Kinase Inhibitor” (Pharmaceuticals, 2024)
